Measurements: patent US20070191397A1, “Fungicidal mixtures based on oxime ether derivatives” (priority 2004, published 2007)

How the values were obtained:
Puccinia recondita = assay: Curative action against brown rust of wheat caused by Puccinia recondita; type: in vivo; conditions: wheat cultivar Kanzler, 7 days
Description: (§1) The active compounds, separately or jointly, were prepared as a stock solution with 0.25% by weight of active compound in acetone or DMSO. 1% by weight of the emulsifier Uniperol® EL (wetting agent having emulsifying and dispersing action based on ethoxylated alkylphenols) was added to this solution, and the solution was diluted with water to the desired concentration.
(§2) Evaluation was carried out by determining the infected leaf areas in percent. These percentages were converted into efficacies. The efficacy (E) is calculated as follows using Abbot's formula: E=(1−α/β)·100 α corresponds to the fungicidal infection of the treated plants in % and β corresponds to the fungicidal infection of the untreated (control) plants in %
(§3) An efficacy of 0 means that the infection level of the treated plants corresponds to that of the untreated control plants; an efficacy of 100 means that the treated plants were not infected.
(§4) The expected efficacies of the mixtures of active compounds are determined using Colby's formula [R.S. Colby, Weeds 15, 20-22 (1967)] and compared with the observed efficacies. Colby's formula: E=x+y−x·y/100 E expected efficacy, expressed in % of the untreated control, when using the mixture of the active compounds A and B at the concentrations a and b x efficacy, expressed in % of the untreated control, when using active compound A at the concentration a y efficacy, expressed in % of the untreated control, when using active compound B at the concentration b
Leaves of wheat seedlings of the cultivar “Kanzler”, grown in pots, were dusted with spores of brown rust (Puccinia recondita). The pots were then placed in the chamber with high atmospheric humidity (90-95%), at 20-22° C., for 24 hours. During this time the spores germinated and the germinal tubes penetrated into the leaf tissue. The next day, the infected plants were sprayed to runoff point with an aqueous suspension having the concentration of active compounds stated below. After the spray coating had dried on, the test plants were cultivated in a greenhouse at 20-22° C. and 65-70% relative atmospheric humidity for 7 days. Thereafter, the extent of the rust fungus development on the leaves was determined.

[1] = tested on: Erysiphe [syn. Blumeria] graminis form a specialis tritici; assay: Activity against mildew of wheat caused by Erysiphe [syn. Blumeria] graminis forma specialis tritici; type: in vivo
Description: as §1, §2, §3, §4
Leaves of wheat seedlings of the cultivar “Kanzler” grown in pots, were sprayed to runoff point with an aqueous suspension having the concentration of active compounds stated below. 24 hours after the spray coating had dried on, dusted with spores of mildew of wheat (Erysiphe [syn. Blumeria] graminis form a specialis tritici). The test plants were then placed in a greenhouse at 20-24° C. and 60-90% relative atmospheric humidity. After 7 days, the extent of the mildew development was determined visually in % infection of the entire leaf area.

| Structure (SMILES) | Efficacy in % of the untreated control (Puccinia recondita; 1 ppm in the spray liquor) | Efficacy in % of the untreated control (Puccinia recondita; 4 ppm in the spray liquor) | Efficacy in % of the untreated control ([1]; 0.25 ppm in the spray liquor, wheat cultivar Kanzler, sprayed 24 h before inoculation, 7 days) | Efficacy in % of the untreated control ([1]; 1 ppm in the spray liquor, wheat cultivar Kanzler, sprayed 24 h before inoculation, 7 days) | Efficacy in % of the untreated control ([1]; 4 ppm in the spray liquor, wheat cultivar Kanzler, sprayed 24 h before inoculation, 7 days) | Efficacy in % of the untreated control ([1]; 0.25 ppm) | Efficacy in % of the untreated control (Puccinia recondita; 0.06 ppm in the spray liquor) | Efficacy in % of the untreated control (Puccinia recondita; 0.25 ppm in the spray liquor) |
| --- | --- | --- | --- | --- | --- | --- | --- | --- |
| CC1CCN(c2c(-c3c(F)cc(F)cc3F)c(Cl)nc3ncnn23)CC1 [I, 5-chloro-7-(4-methylpiperidin-1-yl)-6-(2,4,6-trifluoro-phenyl)-[1,2,4]triazolo[1,5-a]pyrimidine] | 0% | 89% | 0% | 9% | 60% | – | – | – |
| O=C(Cc1ccccc1)N/C(=N\OCC1CC1)c1c(C(F)(F)F)ccc(F)c1F [II.1] | – | – | – | – | – | 70% | – | – |
| O=C(Cc1ccccc1)N/C(=N\OCC1CC1)c1c(OC(F)F)ccc(F)c1F [II.14] | 0% | – | – | – | – | – | 0% | 0% |
